In patent US6706506B2, “Detection of epithelial cell cancers and precancerous conditions” (priority 2000, dated 2004):

How the values were obtained:
[1] = system: RA hydroxylase (CYP26) gene; experiment: Northern blot analysis of RA hydroxylase (CYP26) gene in MCF-7; assay type: cell-based, human; conditions: MCF-7 following retinoic acid addition
From the text: (§1) Total cellular RNA was isolated from cultured cells using RNA Stat-60 according to the manufacturer's instruction (Tel-Test, Friendswood, Tex.). RNA was electrophoretically fractionated by size on 1% agarose/2.2 M formaldehyde gels, transferred to nylon filters by blotting, and attached to the filters using a UV Stratalinker 1800. The cDNA probes used in this analysis were radiolabeled with [^32P]dCTP using a random primer labeling kit (Boehringer Mannheim, Indianapolis, Ind.) according to the manufacturer's directions. Glyceraldehyde phosphate dehydrogenase cDNA was used as a probe for Northern blots as described previously (Guo, et al. Cancer Res. 1998, 58:166-176; Chen, et al. J. Biol. Chem. 1996, 271:14971-14980). AHD-2 cDNA, isolated from a murine liver cDNA library by this laboratory (Chen, Mol. Pharm. 1994, 46:88-96), was used as a probe; this cDNA encodes an aldehyde dehydrogenase class I enzyme, also called ALDH-1 in human. The human LRAT cDNA clone was an Eco RI fragment (840 bp) as described (Ruiz, et al. J. Biol. Chem. 1999, 274:3834-3841). The human neutral, bile salt independent retinyl ester hydrolase and the hepatic, bile sale dependent retinyl ester hydrolase were EST clones #g4069398 and #g2237729, respectively, from Genome Systems (St. Louis, Mo.). […]

LRAT mRNA = experiment: Northern blot analysis of LRAT transcripts after culture with retinoic acid; assay type: cell-based, human; conditions: 1 μM retinoic acid for 48 h; HUVEC, CCD42-SK, GM0970, HMEC, HNBE, NT2
From the text: as §1

[2] = system: RA hydroxylase (CYP26) gene; experiment: Northern blot analysis of RA hydroxylase (CYP26) gene in other tumor lines and normal cell strains; assay type: cell-based, human; conditions: other tumor lines or normal cell strains cultured with or without RA
From the text: as §1

[3] = system: fibroblast cell strains GM0970 and CCD42-SK; experiment: [^3H]retinol metabolism in normal fibroblast cell strains; assay type: cell-based, human; conditions: 15-24 h culture in the presence of [^3H]retinol
Description: (§2) All retinoid solutions and samples were handled under red or dim light. […] A separate control consisting of labeling medium without cells was included during the incubation period. Cells and one-fourth of the media were collected. Cells were washed once with 0.5 ml of phosphate-buffered saline (PBS) and removed from the monolayer in 0.5 ml PBS by scraping. Samples were stored at −70° C. until retinoid extraction. The cell numbers were counted from parallel dishes from each treatment at the time of cell harvest. The retinoids were extracted as described previously (McLean, et al. Clin. Chem. 1982, 28:693-696). Non-radiolabeled retinoid standards were added to the samples prior to extraction. Briefly, 350 μl acetonitrile/butanol (50:50, v/v), 0.1% butylated hydroxytoluene (BHT) was added to 0.5 ml of cells or medium samples. The mixtures were vortexed thoroughly for 30 sec. After addition of 300 μl of a saturated (1.3 kg/liter) K2HPO4 solution and thorough mixing, the samples were centrifuged for 10 min at 3000 g. […] The HPLC analysis was performed using a Waters Millenium system (Waters Corp.) to separate the various retinoids. […] Non-radiolabeled retinoid standards were run concurrently and monitored at a wavelength of 340 nm while a Packard A-500 radiochromatography detector (Packard Instruments, Downers Grove, Ill.) was used to monitor the labeled retinoids. […]

[4] = system: SCC-40 carcinoma line from the soft palate; experiment: [^3H]retinol esterification in SCC-40; assay type: cell-based, human; conditions: SCC-40, 22 h exposure, 50 nM
Description: as §2

OKP-7 cells = experiment: [^3H]retinol pulse chase in OKP-7; assay type: cell-based, human
Description: (§3) For the pulse chase experiments, the cells were cultured for 24 h in 100 nM [^3H]retinol. Cells were then rinsed three times with warm PBS over a 30 minute period, and then incubated in growth medium without [^3H]retinol for an additional one to eight days. At various times following the removal of [^3H]retinol from the medium, dishes of cells were harvested and retinoids were extracted and subjected to HPLC analysis.
(§4) The retinoids were extracted as described previously (McLean, et al. Clin. Chem. 1982, 28:693-696). Non-radiolabeled retinoid standards were added to the samples prior to extraction. Briefly, 350 μl acetonitrile/butanol (50:50, v/v), 0.1% butylated hydroxytoluene (BHT) was added to 0.5 ml of cells or medium samples. The mixtures were vortexed thoroughly for 30 sec. After addition of 300 μl of a saturated (1.3 kg/liter) K2HPO4 solution and thorough mixing, the samples were centrifuged for 10 min at 3000 g. The upper organic layer was collected and transferred to an injector vial for automated HPLC analysis.
(§5) The HPLC analysis was performed using a Waters Millenium system (Waters Corp.) to separate the various retinoids. Samples were applied to an analytical 5 μm reverse-phase C18 column (Vydac, Hesperia, Calif.) at a flow rate of 1.5 ml/min. […] Non-radiolabeled retinoid standards were run concurrently and monitored at a wavelength of 340 nm while a Packard A-500 radiochromatography detector (Packard Instruments, Downers Grove, Ill.) was used to monitor the labeled retinoids. […]
(§6) Therefore, in this series of experiments the cells were cultured in the presence of 100 nM [^3H]retinol and 900 nM retinol in the medium for 24 h, followed by the removal of the [^3H]retinol from the medium. The cells were washed several times, and then dishes of cells were harvested at various times following the removal of [^3H]retinol from the medium, retinoids were extracted from the cells, and the [^3H]retinoids were analyzed by HPLC.

[5] = system: SCC-12 skin squamous carcinoma line; experiment: [^3H]retinol esterification in SCC-12; assay type: cell-based, human; conditions: SCC-12, 22 h culture, 50 nM
Description: as §4
The HPLC analysis was performed using a Waters Millenium system (Waters Corp.) to separate the various retinoids. Samples were applied to an analytical 5 μm reverse-phase C18 column (Vydac, Hesperia, Calif.) at a flow rate of 1.5 ml/min. The gradient consisted of a 35 min linear gradient from 15 mM ammonium acetate, pH 6.5, in water to 85% acetonitrile in a 10 min linear gradient from 85% acetonitrile to acetonitrile-dichloromethane (80:20) followed by a 15 min hold. Non-radiolabeled retinoid standards were run concurrently and monitored at a wavelength of 340 nm while a Packard A-500 radiochromatography detector (Packard Instruments, Downers Grove, Ill.) was used to monitor the labeled retinoids. […]

[6] = system: normal epithelial cell strains HMEC, ADO74, NHEK, OKP-7; experiment: [^3H]retinol esterification in normal epithelial cell strains; assay type: cell-based, human; conditions: 50 nM [^3H]retinol in the medium
Description: as §2

[7] = system: MDA-MB-231 breast carcinoma line; experiment: [^3H]retinol pulse chase in MDA-MB-231; assay type: cell-based, human
Description: as §3
(§7) The retinoids were extracted as described previously (McLean, et al. Clin. Chem. 1982, 28:693-696). Non-radiolabeled retinoid standards were added to the samples prior to extraction. […]
(§8) The HPLC analysis was performed using a Waters Millenium system (Waters Corp.) to separate the various retinoids. […] Non-radiolabeled retinoid standards were run concurrently and monitored at a wavelength of 340 nm while a Packard A-500 radiochromatography detector (Packard Instruments, Downers Grove, Ill.) was used to monitor the labeled retinoids. […]
as §6

[8] = system: normal human epidermal keratinocytes (NHEK); experiment: [^3H]retinol esterification in NHEK; assay type: cell-based; conditions: 15 h culture
Description: as §2

ADO74 cells = experiment: [^3H]retinol pulse chase in ADO74; assay type: cell-based, human
Description: as §3, §4, §5, §6

[9] = system: MCF-7 breast carcinoma cell line; experiment: [^3H]retinol esterification in MCF-7; assay type: cell-based, human; conditions: MCF-7, 22 h culture, 50 nM
Description: as §2

[10] = system: SCC-40 squamous cell carcinoma line; experiment: [^3H]retinol pulse chase in SCC-40; assay type: cell-based, human
Description: as §3, §7, §8, §6

[11] = system: human umbilical vein endothelial cells (HUVEC); experiment: [^3H]retinol metabolism in HUVEC; assay type: cell-based; conditions: 15 h culture, 50 nM [^3H]retinol
Description: as §2

[12] = system: normal human bronchial epithelial cells (NHBE); experiment: [^3H]retinol esterification in NHBE; assay type: cell-based; conditions: 15 h culture
Description: as §2

[13] = OKP-7, four to eight days after [^3H]retinol removal
[14] = ADO74, four to eight days after [^3H]retinol removal

Compound: CC1=C(/C=C/C(C)=C/C=C/C(C)=C/C(=O)O)C(C)(C)CCC1 [retinoic acid, all-trans retinoic acid]
- expression of RA hydroxylase (CYP26) gene [1]: strongly expressed
- effect on levels of LRAT mRNA (LRAT mRNA): a slight increase in LRAT mRNA
- expression of RA hydroxylase (CYP26) gene [2]: not expressed at detectable levels

Compound: [^3H]retinol
- retinol metabolism [3]: Essentially no retinol metabolism occurred
- [^3H]retinol esterification [4]: did not exhibit any significant [^3H]retinol esterification
- intracellular concentration of [^3H]retinyl esters (OKP-7 cells; OKP-7, four days after removal of [^3H]retinol, 100 nM [^3H]retinol and 900 nM retinol for 24 h): approximately 26 μM
- intracellular concentration of [^3H]retinoic acid (OKP-7 cells; [13]): 1 to 2 µM
- intracellular concentration of [^3H]retinol (OKP-7 cells; [13]): 3 to 10 µM
- [^3H]retinol esterification [5]: some [^3H]retinol esterification
- time by which all of the [^3H]retinol in the medium had been esterified [6]: 6 to 8 h
- time after removal by which no [^3H]retinol is detectable intracellularly ([7]; MDA-MB-231): ≤ 24 h
- retinyl esters at the time of [^3H]retinol removal ([7]; MDA-MB-231, day 0): no detectable retinyl esters
- esterification of [^3H]retinol to retinyl esters [8]: extensive esterification
- intracellular concentration of [^3H]retinyl esters (ADO74 cells; ADO74, four days after removal of [^3H]retinol, 100 nM [^3H]retinol and 900 nM retinol for 24 h): ~30 µM
- intracellular concentration of [^3H]retinoic acid (ADO74 cells; [14]): 1 to 2 µM
- intracellular concentration of [^3H]retinol (ADO74 cells; [14]): 3 to 10 µM
- [^3H]retinol esterification [9]: did not exhibit [^3H]retinol esterification
- time after removal by which no [^3H]retinol is detectable intracellularly ([10]; SCC-40): ≤ 24 h
- retinyl esters at the time of [^3H]retinol removal ([10]; SCC-40, day 0): no detectable retinyl esters
- retinyl esters found [11]: only trace amounts of retinyl esters were found
- esterification of [^3H]retinol to retinyl esters [12]: extensive esterification
